Reference: US8178534B2, “cMET inhibitors” (Takeda Pharmaceutical Company Limited, priority 2008, dated 2012)
Structures can show the parent of a compound that is named as a salt.

Key:
[1] = biological target: T1, cMET enzyme (amino acids 1023-1360) (Homo sapiens, UniProt P08581); test: Determination of inhibition of cMET (capillary electrophoresis, phosphorylated peptide product); format: biochemical; conditions: 1.2 nM cMET, 50 μM ATP, 2 μM FL-2 peptide, 2 hours room temperature
T1 construct: The cMET enzyme (amino acids 1023-1360) nominally at 24 μM was held at −80° C. until use; His tag (N, cleaved yes); made in house; host or cells: Sf9 cells
T1 sequence (P08581 1023-1360): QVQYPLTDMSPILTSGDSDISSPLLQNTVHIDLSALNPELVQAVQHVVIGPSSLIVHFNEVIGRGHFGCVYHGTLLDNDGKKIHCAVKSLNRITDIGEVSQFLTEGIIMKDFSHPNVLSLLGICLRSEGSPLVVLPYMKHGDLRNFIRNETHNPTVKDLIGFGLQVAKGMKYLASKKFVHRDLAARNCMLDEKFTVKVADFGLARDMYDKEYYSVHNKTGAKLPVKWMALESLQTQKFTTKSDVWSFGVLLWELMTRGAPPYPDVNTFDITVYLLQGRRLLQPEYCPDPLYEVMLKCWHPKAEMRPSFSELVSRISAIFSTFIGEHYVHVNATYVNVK

MKN45 = test: Inhibition of cell viability (MTS), MKN45; format: cell-based; conditions: 96 hours incubation
In short: (§1)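 Cells seeded at 2,000-7,500/well, attached ~24 h, then treated in duplicate with 1:2.5 serial dilutions at 0.5% final DMSO. Viability by MTS; EC50 from non-linear fit after background correction and normalisation to DMSO. MKN45 and EBC1 are cMET-dependent; A549 serves as negative control.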

EBC1 = test: Inhibition of cell viability (MTS), EBC1; format: cell-based; conditions: 96 hours incubation
In short: as §1

A549 = test: Inhibition of cell viability (MTS), A549 (negative control line); format: cell-based; conditions: A549 cells (negative control), 96 hours incubation
In short: as §1

[2] = Homo sapiens, MKN-45, 96 h, MKN45 cells
[3] = Homo sapiens, EBC-1, 96 h, EBC1 cells

| SMILES | melting point | IC50 [1] | EC50 (MKN45; MKN45 cells) | EC50 (A549) | EC50 (MKN45; [2]) | EC50 (A549; Homo sapiens, A549, 96 h) | EC50 (EBC1; EBC1 cells) | EC50 (EBC1; [3]) | EC50 (MKN45; Homo sapiens, MKN-45, MKN45 cells) | EC50 (EBC1; Homo sapiens, EBC-1, EBC1 cells) | EC50 (A549; Homo sapiens) |
| --- | --- | --- | --- | --- | --- | --- | --- | --- | --- | --- | --- |
| O=C(Nc1cn2nc(Sc3nnc4ccc(-c5cnn(CCO)c5)cn34)ccc2n1)C1CC1 (as salt: HCl) [Compound 32] | 182 to 184 °C | – | – | – | – | – | – | – | – | – | – |
| Cn1cc(-c2ccc3nnn(Cc4ccc5nc(NC(=O)C6CC6)cn5n4)c3c2)cn1 [13 (free base), N-(6-((6-(1-methyl-1H-pyrazol-4-yl)-1H-benzo[d][1,2,3]triazol-1-yl)methyl)imidazo[1,2-b]pyridazin-2-yl)cyclopropanecarboxamide] | 250.2 to 251.6 °C | 0.03 to 0.059 µM | < 0.03 µM | > 50 µM | – | – | < 0.03 µM | – | – | – | – |
| O=C(Nc1cn2nc(C(F)(F)c3nnc4ccc(-c5cn[nH]c5)cn34)ccc2n1)C1CC1 [Compound 92, N-(6-((6-(1H-pyrazol-4-yl)-[1,2,4]triazolo[4,3-a]pyridin-3-yl)difluoromethyl)imidazo[1,2-b]pyridazin-2-yl)cyclopropanecarboxamide] | – | < 0.03 µM | – | – | < 0.03 µM | > 50 µM | – | < 0.03 µM | – | – | – |
| CC(C)Oc1cccc(-c2ccc3nnc(C(F)(F)c4ccc5nc(NC(=O)C6CC6)cn5n4)n3c2)c1 [Compound 93, N-(6-(difluoro(6-(3-isopropoxyphenyl)-[1,2,4]triazolo[4,3-a]pyridin-3-yl)methyl)imidazo[1,2-b]pyridazin-2-yl)cyclopropanecarboxamide] | – | 0.06 to 0.1 µM | – | – | 0.03 to 0.059 µM | 8 to 25 µM | – | 0.03 to 0.059 µM | – | – | – |
| CN(C)c1cccc(-c2ccc3nnc(C(F)(F)c4ccc5nc(NC(=O)C6CC6)cn5n4)n3c2)c1 [Compound 96, N-(6-((6-(3-(dimethylamino)phenyl)-[1,2,4]triazolo[4,3-a]pyridin-3-yl)difluoromethyl)imidazo[1,2-b]pyridazin-2-yl)cyclopropanecarboxamide] | – | < 0.03 µM | – | – | < 0.03 µM | 8 to 25 µM | – | < 0.03 µM | – | – | – |
| Cc1cc(F)cc(-c2ccc3nnc(C(F)(F)c4ccc5nc(NC(=O)C6CC6)cn5n4)n3c2)c1 [Compound 97, N-(6-(difluoro(6-(3-fluoro-5-methylphenyl)-[1,2,4]triazolo[4,3-a]pyridin-3-yl)methyl)imidazo[1,2-b]pyridazin-2-yl)cyclopropanecarboxamide] | – | < 0.03 µM | – | – | < 0.03 µM | > 50 µM | – | < 0.03 µM | – | – | – |
| CNC(=O)c1ccc(-c2ccc3nnc(C(F)(F)c4ccc5nc(NC(=O)C6CC6)cn5n4)n3c2)cc1F [Compound 98, 4-(3-((2-(cyclopropanecarboxamido)imidazo[1,2-b]pyridazin-6-yl)difluoromethyl)-[1,2,4]triazolo[4,3-a]pyridin-6-yl)-2-fluoro-N-methylbenzamide] | – | < 0.03 µM | – | – | < 0.03 µM | > 50 µM | – | < 0.03 µM | – | – | – |
| Cn1cc(-c2ccc3nnc(C(F)(F)c4ccc5nc(N)cn5n4)n3c2)cn1 [Compound 99, 6-(difluoro(6-(1-methyl-1H-pyrazol-4-yl)-[1,2,4]triazolo[4,3-a]pyridin-3-yl)methyl)imidazo[1,2-b]pyridazin-2-amine] | – | 0.25 to 0.63 µM | – | – | 0.1 to 0.249 µM | > 50 µM | – | 0.1 to 0.249 µM | – | – | – |
| COc1cccc(-c2ccc3nnc(Sc4ccc5nc(NC(=O)C6CC6)cn5n4)n3c2)n1 [Compound 101, N-(6-(6-(6-methoxypyridin-2-yl)-[1,2,4]triazolo[4,3-a]pyridin-3-ylthio)imidazo[1,2-b]pyridazin-2-yl)cyclopropanecarboxamide] | – | < 0.03 µM | – | – | 0.1 to 0.249 µM | > 50 µM | – | 0.03 to 0.059 µM | – | – | – |
| COc1ccc(-c2ccc3nnc(Sc4ccc5nc(NC(=O)C6CC6)cn5n4)n3c2)cn1 [Compound 102, N-(6-(6-(6-methoxypyridin-3-yl)-[1,2,4]triazolo[4,3-a]pyridin-3-ylthio)imidazo[1,2-b]pyridazin-2-yl)cyclopropanecarboxamide] | – | 0.03 to 0.059 µM | – | – | 0.06 to 0.1 µM | > 50 µM | – | 0.03 to 0.059 µM | – | – | – |
| O=C(Nc1cn2nc(Sc3nnc4ccc(-c5ccc(N6CCOCC6)nc5)cn34)ccc2n1)C1CC1 [Compound 103, N-(6-(6-(6-morpholinopyridin-3-yl)-[1,2,4]triazolo[4,3-a]pyridin-3-ylthio)imidazo[1,2-b]pyridazin-2-yl)cyclopropanecarboxamide] | – | < 0.03 µM | – | – | 0.03 to 0.059 µM | > 50 µM | – | < 0.03 µM | – | – | – |
| N#Cc1cc(-c2ccc3nnc(Sc4ccc5nc(NC(=O)C6CC6)cn5n4)n3c2)ccc1OCCO [Compound 107, N-(6-(6-(3-cyano-4-(2-hydroxyethoxy)phenyl)-[1,2,4]triazolo[4,3-a]pyridin-3-ylthio)imidazo[1,2-b]pyridazin-2-yl)cyclopropanecarboxamide] | – | < 0.03 µM | – | – | – | – | – | – | 0.1 to 0.249 µM | 0.06 to 0.1 µM | > 50 µM |

Continued, in another order:

| melting point | IC50 [1] | EC50 (MKN45; MKN45 cells) | EC50 (A549) | EC50 (MKN45; [2]) | EC50 (A549; Homo sapiens, A549, 96 h) | SMILES | EC50 (EBC1; EBC1 cells) | EC50 (EBC1; [3]) | EC50 (MKN45; Homo sapiens, MKN-45, MKN45 cells) | EC50 (EBC1; Homo sapiens, EBC-1, EBC1 cells) | EC50 (A549; Homo sapiens) |
| --- | --- | --- | --- | --- | --- | --- | --- | --- | --- | --- | --- |
| – | < 0.03 µM | – | – | < 0.03 µM | > 50 µM | N#Cc1cccc(-c2ccc3nnc(Sc4ccc5nc(NC(=O)C6CC6)cn5n4)n3c2)c1 [Compound 104, N-(6-(6-(3-cyanophenyl)-[1,2,4]triazolo[4,3-a]pyridin-3-ylthio)imidazo[1,2-b]pyridazin-2-yl)cyclopropanecarboxamide] | – | < 0.03 µM | – | – | – |
| – | 0.03 to 0.059 µM | – | – | 8 to 25 µM | > 50 µM | N#Cc1cc(-c2ccc3nnc(Sc4ccc5nc(NC(=O)C6CC6)cn5n4)n3c2)cnc1O [Compound 108, N-(6-(6-(5-cyano-6-hydroxypyridin-3-yl)-[1,2,4]triazolo[4,3-a]pyridin-3-ylthio)imidazo[1,2-b]pyridazin-2-yl)cyclopropanecarboxamide] | – | 8 to 25 µM | – | – | – |
| – | 0.25 to 0.63 µM | – | – | 8 to 25 µM | 8 to 25 µM | O=C(Nc1cn2nc(Sc3nnc4ccc(-c5cnc(NCCCO)nc5)cn34)ccc2n1)C1CC1 [Compound 109, N-(6-(6-(2-(3-hydroxypropylamino)pyrimidin-5-yl)-[1,2,4]triazolo[4,3-a]pyridin-3-ylthio)imidazo[1,2-b]pyridazin-2-yl)cyclopropanecarboxamide] | – | 8 to 25 µM | – | – | – |
| – | 0.03 to 0.059 µM | – | – | 0.1 to 0.249 µM | > 50 µM | O=C(Nc1cn2nc(Sc3nnc4ccc(-c5csc(N6CCOCC6)n5)cn34)ccc2n1)C1CC1 [Compound 110, N-(6-(6-(2-morpholinothiazol-4-yl)-[1,2,4]triazolo[4,3-a]pyridin-3-ylthio)imidazo[1,2-b]pyridazin-2-yl)cyclopropanecarboxamide] | – | 0.03 to 0.059 µM | – | – | – |
| – | < 0.03 µM | – | – | 0.1 to 0.249 µM | 8 to 25 µM | O=C(Nc1cn2nc(Sc3nnc4ccc(-c5cccc(CCCO)c5)cn34)ccc2n1)C1CC1 [Compound 111, N-(6-(6-(3-(3-hydroxypropyl)phenyl)-[1,2,4]triazolo[4,3-a]pyridin-3-ylthio)imidazo[1,2-b]pyridazin-2-yl)cyclopropanecarboxamide] | – | 0.03 to 0.059 µM | – | – | – |
| – | > 0.63 µM | – | – | > 0.63 µM | > 50 µM | Nc1cn2nc(Sc3nnc4ccccn34)ccc2n1 [Compound 114, 6-([1,2,4]triazolo[4,3-a]pyridin-3-ylthio)imidazo[1,2-b]pyridazin-2-amine] | – | > 0.63 µM | – | – | – |
